# Test results published in patent US20060241297A1, “Pyridinylamino-pyrimidine derivatives as protein kinase inhibitors” (Cyclacel Limited, priority 2003, published 2006).
# Like-named read-outs stand apart in the source and are kept apart here.
# Tests used:
# GSK3β = GSK3β (Homo sapiens, UniProt P49841); test: Kinase assay, incorporation of radioactive phosphate from ATP; assay type: biochemical; conditions: 100 μM ATP, 30° C.; read-out: Kinase inhibition Ki GSK3β
# Method: (§1) The compounds from the examples above were investigated for their ability to inhibit the enzymatic activity of various protein kinases. This was achieved by measurement of incorporation of radioactive phosphate from ATP into appropriate polypeptide substrates. Recombinant protein kinases and kinase complexes were produced or obtained commercially. Assays were performed using 96-well plates and appropriate assay buffers (typically 25 mM β-glycerophosphate, 20 mM MOPS, 5 mM EGTA, 1 mM DTT, 1 mM […], pH 7.4), into which were added 2-4 μg of active enzyme with appropriate substrates. The reactions were initiated by addition of Mg/ATP mix (15 mM MgCl2+100 μM ATP with 30-50 kBq per well of [γ-^32P]-ATP) and mixtures incubated as required at 30° C. Reactions were stopped on ice, followed by filtration through p81 filterplates or GF/C filterplates (Whatman Polyfiltronics, Kent, UK). After washing 3 times with 75 mM aq orthophosphoric acid, plates were dried, scintillant added and incorporated radioactivity measured in a scintillation counter (TopCount, Packard Instruments, Pangboume, Berks, UK). Compounds for kinase assay were made up as 10 mM stocks in DMSO and diluted into 10% DMSO in assay buffer. Data was analysed using curve-fitting software (GraphPad Prism version 3.00 for Windows, GraphPad Software, San Diego Calif. USA) to determine IC50 values (concentration of test compound which inhibits kinase activity by 50%.).
# CDK2/cyclin E = CDK2/cyclin E (Homo sapiens, UniProt P24941); test: as above; assay type: biochemical; conditions: 100 μM ATP, 30° C.; read-out: Kinase inhibition Ki CDK2/cyclin E
# Method: as §1
# CDK2/cyclin A = CDK2/cyclin A (Homo sapiens, UniProt P24941); test: as above; assay type: biochemical; conditions: 100 μM ATP, 30° C.; read-out: Kinase inhibition Ki CDK2/cyclin A
# Method: as §1
# CDK1/cyclin B = CDK1/cyclin B (Homo sapiens, UniProt P06493); test: as above; assay type: biochemical; conditions: 100 μM ATP, 30° C.; read-out: Kinase inhibition Ki CDK1/cyclin B
# Method: as §1
# CDK7/cyclin H = CDK7/cyclin H (Homo sapiens, UniProt P50613); test: as above; assay type: biochemical; conditions: 100 μM ATP, 30° C.; read-out: Kinase inhibition Ki CDK7/cyclin H
# Method: as §1
# CDK9/cyclin T1 = CDK9/cyclin T1 (Homo sapiens, UniProt P50750); test: as above; assay type: biochemical; conditions: 100 μM ATP, 30° C.; read-out: Kinase inhibition Ki CDK9/cyclin T1
# Method: as §1
# CDK4/cyclin D1 = CDK4/cyclin D1 (Homo sapiens, UniProt P11802); test: as above; assay type: biochemical; conditions: 100 μM ATP, 30° C.; read-out: Kinase inhibition Ki CDK4/cyclin D1
# Method: as §1
# [1] = tested on: transformed human cell lines (A549, HT29, Saos-2); test: 72-h MTT cytotoxicity assay, average over cell lines; assay type: cell-based
# Method: (§2) The compounds from the examples above were subjected to a standard cellular proliferation assay using human tumour cell lines obtained from the ATCC (American Type Culture Collection, 10801 University Boulevard, Manessas, Va. 20110-2209, USA). Standard 72-h MTT (thiazolyl blue; 3-[4,5-dimethylthiazol-2-yl]-2,5-diphenyltetrazolium bromide) assays were performed. In short: cells were seeded into 96-well plates according to doubling time and incubated overnight at 37° C. Test compounds were made up in DMSO and a 1/3 dilution series prepared in 100 μL cell media, added to cells (in triplicates) and incubated for 72 ho at 37° C. MTT was made up as a stock of 5 mg/mL in cell media and filter-sterilised. Media was removed from cells followed by a wash with 200 μL PBS. MTT solution was then added at 20 μL per well and incubated in the dark at 37° C. for 4 h. MTT solution was removed and cells again washed with 200 μL PBS. MTT dye was solubilised with 200 μL per well of DMSO with agitation. Absorbance was read at 540 nm and data analysed using curve-fitting software (GraphPad Prism version 3.00 for Windows, GraphPad Software, San Diego Calif. USA) to determine IC50 values (concentration of test compound which inhibits cell growth by 50%). Various modifications and variations of the described aspects of the invention will be apparent to those skilled in the art without departing from the scope and spirit of the invention. Although the invention has been described in connection with specific preferred embodiments, it should be understood that the invention as claimed should not be unduly limited to such specific embodiments. Indeed, various modifications of the described modes of carrying out the invention which are obvious to those skilled in the relevant fields are intended to be within the scope of the following claims.
# A549 = test: 72-h MTT cytotoxicity assay; assay type: cell-based; conditions: Homo sapiens
# Method: as §2
# Saos-2 = test: 72-h MTT cytotoxicity assay; assay type: cell-based; conditions: Homo sapiens
# Method: as §2
# HT29 = test: 72-h MTT cytotoxicity assay; assay type: cell-based; conditions: Homo sapiens, HT-29
# Method: as §2
# Aurora-A = molecular target: T1, Aurora-A (Homo sapiens, UniProt O14965); test: Kinase assay, incorporation of radioactive phosphate from ATP; assay type: biochemical; conditions: 100 μM ATP, 30° C.; read-out: Kinase inhibition Ki Aurora-A
# T1 sequence (O14965 1-403): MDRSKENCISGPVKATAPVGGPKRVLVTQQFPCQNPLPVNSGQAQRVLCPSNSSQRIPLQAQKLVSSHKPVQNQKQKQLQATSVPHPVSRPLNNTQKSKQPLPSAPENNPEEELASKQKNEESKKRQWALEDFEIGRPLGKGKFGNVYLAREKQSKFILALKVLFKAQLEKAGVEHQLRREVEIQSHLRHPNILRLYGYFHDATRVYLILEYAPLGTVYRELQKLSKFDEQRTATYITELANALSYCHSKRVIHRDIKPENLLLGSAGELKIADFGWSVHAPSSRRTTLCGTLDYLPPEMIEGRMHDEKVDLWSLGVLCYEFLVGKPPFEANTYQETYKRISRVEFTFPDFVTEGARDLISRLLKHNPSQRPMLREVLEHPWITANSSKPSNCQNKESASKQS
# Method: as §1
# [2] = average of A549, HT29, Saos-2, read-out: 72-h MTT IC50 Average
# [3] = in vitro, read-out: IC50 value (average) against one or more transformed human cell lines, 72-h MTT cytotoxicity assay
# Sequence of CDK4/cyclin D1 (P11802 whole entry): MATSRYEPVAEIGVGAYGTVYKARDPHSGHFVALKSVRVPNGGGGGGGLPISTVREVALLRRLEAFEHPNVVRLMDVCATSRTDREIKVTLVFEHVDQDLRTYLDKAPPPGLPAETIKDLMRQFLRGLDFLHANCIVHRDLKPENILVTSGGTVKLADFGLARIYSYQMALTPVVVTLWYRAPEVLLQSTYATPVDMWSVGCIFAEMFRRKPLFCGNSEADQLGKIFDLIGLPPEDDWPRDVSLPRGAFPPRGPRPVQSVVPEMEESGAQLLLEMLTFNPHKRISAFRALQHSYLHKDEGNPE
# Sequence of CDK4/cyclin D1 (P24385 whole entry partner): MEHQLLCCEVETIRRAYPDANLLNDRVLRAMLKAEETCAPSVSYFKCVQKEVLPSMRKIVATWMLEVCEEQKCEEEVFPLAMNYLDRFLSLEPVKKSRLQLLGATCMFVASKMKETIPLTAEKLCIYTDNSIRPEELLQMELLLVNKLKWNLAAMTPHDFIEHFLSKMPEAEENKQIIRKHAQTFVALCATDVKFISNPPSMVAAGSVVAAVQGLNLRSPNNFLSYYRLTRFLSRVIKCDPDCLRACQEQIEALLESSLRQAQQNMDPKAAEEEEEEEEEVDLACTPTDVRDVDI
# Sequence of GSK3β (P49841 whole entry): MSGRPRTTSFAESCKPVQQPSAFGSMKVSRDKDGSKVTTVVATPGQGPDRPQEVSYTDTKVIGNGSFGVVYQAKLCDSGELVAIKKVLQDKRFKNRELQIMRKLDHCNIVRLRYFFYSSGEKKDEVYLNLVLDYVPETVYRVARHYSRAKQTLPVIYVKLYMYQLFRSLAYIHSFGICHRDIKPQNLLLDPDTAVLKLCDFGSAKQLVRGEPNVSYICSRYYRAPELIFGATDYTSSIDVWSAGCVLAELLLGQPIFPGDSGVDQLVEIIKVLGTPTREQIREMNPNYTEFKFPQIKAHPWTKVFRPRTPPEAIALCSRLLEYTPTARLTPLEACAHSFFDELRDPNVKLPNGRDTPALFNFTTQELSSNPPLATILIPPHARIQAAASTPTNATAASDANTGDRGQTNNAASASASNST
# Sequence of CDK9/cyclin T1 (P50750 whole entry): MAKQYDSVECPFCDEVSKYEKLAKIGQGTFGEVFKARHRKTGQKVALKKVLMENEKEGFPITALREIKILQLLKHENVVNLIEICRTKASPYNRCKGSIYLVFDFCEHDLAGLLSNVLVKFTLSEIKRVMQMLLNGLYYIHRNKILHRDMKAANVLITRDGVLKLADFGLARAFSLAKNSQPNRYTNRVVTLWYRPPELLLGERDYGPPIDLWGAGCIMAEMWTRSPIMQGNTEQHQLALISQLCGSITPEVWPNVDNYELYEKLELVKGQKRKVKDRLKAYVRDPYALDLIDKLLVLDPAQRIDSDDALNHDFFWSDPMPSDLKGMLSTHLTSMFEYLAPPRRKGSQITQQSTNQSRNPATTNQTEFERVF
# Sequence of CDK9/cyclin T1 (O60563 whole entry partner): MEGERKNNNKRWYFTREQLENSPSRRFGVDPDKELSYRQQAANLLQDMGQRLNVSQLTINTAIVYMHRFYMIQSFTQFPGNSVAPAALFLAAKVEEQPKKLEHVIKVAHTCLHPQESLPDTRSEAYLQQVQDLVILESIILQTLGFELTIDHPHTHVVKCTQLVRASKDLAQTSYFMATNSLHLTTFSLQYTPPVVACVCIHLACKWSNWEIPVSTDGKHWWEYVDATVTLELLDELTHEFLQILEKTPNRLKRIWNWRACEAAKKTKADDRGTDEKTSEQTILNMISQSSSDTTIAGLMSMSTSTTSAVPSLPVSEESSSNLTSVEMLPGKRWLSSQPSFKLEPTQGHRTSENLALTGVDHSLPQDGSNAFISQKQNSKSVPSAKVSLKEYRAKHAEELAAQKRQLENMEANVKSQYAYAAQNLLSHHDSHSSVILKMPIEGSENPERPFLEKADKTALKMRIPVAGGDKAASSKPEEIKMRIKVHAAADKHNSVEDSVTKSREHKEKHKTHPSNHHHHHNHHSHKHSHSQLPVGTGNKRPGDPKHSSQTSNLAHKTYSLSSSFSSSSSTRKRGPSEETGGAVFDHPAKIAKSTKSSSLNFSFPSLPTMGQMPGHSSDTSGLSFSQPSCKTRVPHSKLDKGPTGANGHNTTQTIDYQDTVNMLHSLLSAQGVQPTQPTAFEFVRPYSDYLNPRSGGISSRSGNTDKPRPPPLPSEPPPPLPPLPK
# Sequence of CDK1/cyclin B (P06493 whole entry): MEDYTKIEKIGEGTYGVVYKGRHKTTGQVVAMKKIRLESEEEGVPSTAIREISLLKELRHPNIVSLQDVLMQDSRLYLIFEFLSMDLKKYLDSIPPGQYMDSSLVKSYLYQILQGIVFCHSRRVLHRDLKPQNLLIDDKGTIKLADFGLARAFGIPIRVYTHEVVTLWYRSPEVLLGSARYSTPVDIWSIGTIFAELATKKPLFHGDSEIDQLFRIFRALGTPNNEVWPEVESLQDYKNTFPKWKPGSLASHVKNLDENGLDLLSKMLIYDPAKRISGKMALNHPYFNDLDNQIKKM
# Sequence of CDK1/cyclin B (P14635 whole entry partner): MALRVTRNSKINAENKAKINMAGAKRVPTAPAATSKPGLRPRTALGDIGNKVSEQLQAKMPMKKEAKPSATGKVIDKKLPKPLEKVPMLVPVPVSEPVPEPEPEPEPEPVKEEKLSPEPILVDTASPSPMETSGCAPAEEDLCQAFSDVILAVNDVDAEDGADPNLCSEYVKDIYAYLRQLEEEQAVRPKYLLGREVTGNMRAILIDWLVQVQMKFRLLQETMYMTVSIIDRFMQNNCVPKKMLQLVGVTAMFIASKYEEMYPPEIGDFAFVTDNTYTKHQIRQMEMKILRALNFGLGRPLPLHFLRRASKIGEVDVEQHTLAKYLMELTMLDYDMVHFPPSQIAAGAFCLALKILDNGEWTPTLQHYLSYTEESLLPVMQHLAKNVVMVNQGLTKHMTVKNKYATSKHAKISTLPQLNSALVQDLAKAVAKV
# Sequence of CDK7/cyclin H (P50613 whole entry): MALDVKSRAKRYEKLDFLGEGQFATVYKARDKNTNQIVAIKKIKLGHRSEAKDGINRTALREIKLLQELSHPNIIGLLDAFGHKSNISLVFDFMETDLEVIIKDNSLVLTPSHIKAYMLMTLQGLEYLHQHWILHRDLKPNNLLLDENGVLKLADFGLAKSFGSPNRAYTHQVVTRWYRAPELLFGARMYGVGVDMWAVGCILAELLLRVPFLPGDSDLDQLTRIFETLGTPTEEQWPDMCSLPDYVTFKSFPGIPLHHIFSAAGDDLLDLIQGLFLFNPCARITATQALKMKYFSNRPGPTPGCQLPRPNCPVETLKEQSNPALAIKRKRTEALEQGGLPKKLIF
# Sequence of CDK7/cyclin H (P51946 whole entry partner): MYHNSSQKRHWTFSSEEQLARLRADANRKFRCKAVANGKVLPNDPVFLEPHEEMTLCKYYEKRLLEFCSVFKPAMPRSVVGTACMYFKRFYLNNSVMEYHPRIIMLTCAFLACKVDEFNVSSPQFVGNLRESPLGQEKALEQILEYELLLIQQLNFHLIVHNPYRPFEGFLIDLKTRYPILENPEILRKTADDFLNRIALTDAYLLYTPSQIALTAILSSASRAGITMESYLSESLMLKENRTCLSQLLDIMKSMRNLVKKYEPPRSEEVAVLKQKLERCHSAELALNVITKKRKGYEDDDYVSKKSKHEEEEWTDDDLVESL
Compound,Ki (GSK3β) [µM],Ki (CDK2/cyclin E) [µM],Ki (CDK2/cyclin A) [µM],Ki (CDK1/cyclin B) [µM],Ki (CDK7/cyclin H) [µM],Ki (CDK9/cyclin T1) [µM],Ki (CDK4/cyclin D1) [µM],Ki (Aurora-A) [µM],"IC50 [1, 2] [µM]","IC50 [1, 3] [µM]",IC50 (A549) [µM],IC50 (Saos-2) [µM],IC50 (HT29) [µM]
"CNc1nc(C)c(-c2ccnc(Nc3ccc(Cl)nc3)n2)s1 [Compound 9, (6-Chloro-pyridin-3-yl)-[4-(4-methyl-2-methylamino-thiazol-5-yl)-pyrimidin-2-yl]-amine]",–,0.08,0.48,–,–,0.11,0.98,1,4.6 ± 0.8,< 10,3.7,5.2,4.7
"COc1ccc(Nc2nccc(-c3sc(C)nc3C)n2)cn1 [Compound 6, [4-(2,4-Dimethyl-thiazol-5-yl)-pyrimidin-2-yl]-(6-methoxy-pyridin-3-yl)-amine]",–,0.13,1.4,2.8,1.4,0.28,0.46,–,4.6 ± 3.1,< 10,5.1,7.5,1.4
"COc1ccc(Nc2nccc(-c3sc(N(C)C)nc3C)n2)cn1 [Compound 10, [4-(2-Dimethylamino-4-methyl-thiazol-5-yl)-pyrimidin-2-yl]-(6-methoxy-pyridin-3-yl)-amine]",0.11,0.12,0.33,1.2,2.3,0.14,0.07,–,2 ± 0.4,–,2.4,1.8,1.7
"Cc1c(-c2ccnc(Nc3ccc(Cl)nc3)n2)sc(=O)n1C [Compound 4, 5-[2-(6-chloro-pyridin-3-ylamino)-pyrimidin-4-yl]-3,4-dimethyl-3H-thiazol-2-one]",0.011,0.14,–,1.5,–,0.021,–,–,1.1 ± 0.6,–,1.1,1.7,0.6
"COc1ccc(Nc2nccc(-c3sc(N)nc3C)n2)cn1 [Compound 5, [4-(2-Amino-4-methyl-thiazol-5-yl)-pyrimidin-2-yl]-(6-methoxy-pyridin-3-yl)-amine]",0.35,0.07,0.95,5.5,0.71,0.005,0.06,–,3.5 ± 0.4,< 10,3.5,3.1,4
"CNc1nc(C)c(-c2ccnc(Nc3ccc(OC)nc3)n2)s1 [Compound 8, (6-Methoxy-pyridin-3-yl)-[4-(4-methyl-2-methylamino-thiazol-5-yl)-pyrimidin-2-yl]-amine]",0.05,0.03,0.27,0.84,0.43,0.006,0.04,–,1.7 ± 0.3,–,1.4,1.7,2

# The remaining compounds from weak to strong by Ki (CDK9/cyclin T1), led by results:
Ki (GSK3β) [µM],Ki (CDK2/cyclin E) [µM],Ki (CDK2/cyclin A) [µM],Ki (CDK1/cyclin B) [µM],Ki (CDK7/cyclin H) [µM],Ki (CDK9/cyclin T1) [µM],Ki (CDK4/cyclin D1) [µM],Ki (Aurora-A) [µM],Compound,"IC50 [1, 2] [µM]","IC50 [1, 3] [µM]",IC50 (A549) [µM],IC50 (Saos-2) [µM],IC50 (HT29) [µM]
0.1,0.25,0.95,2.3,0.65,0.12,0.25,–,"COCCNc1nc(C)c(-c2ccnc(Nc3ccc(OC)nc3)n2)s1 [Compound 13, {4-[2-(2-Methoxy-ethylamino)-4-methyl-thiazol-5-yl]-pyrimidin-2-yl}-(6-methoxy-pyridin-3-yl)-amine]",–,–,–,–,–
–,–,1.4,2.1,0.73,0.1,2.6,0.12,"Cc1nc(C)c(-c2ccnc(Nc3ccc(N4CCCC4)nc3)n2)s1 [Compound 14, [4-(2,4-Dimethyl-thiazol-5-yl)-pyrimidin-2-yl]-(6-pyrrolidin-1-yl-pyridin-3-yl)-amine]",0.3,–,0.3,0.32,–
0.06,0.05,0.03,0.1,0.13,0.09,0.08,–,"CCNc1nc(C)c(-c2ccnc(Nc3ccc(OC)nc3)n2)s1 [Compound 12, [4-(2-Ethylamino-4-methyl-thiazol-5-yl)-pyrimidin-2-yl]-(6-methoxy-pyridin-3-yl)-amine]",1.2 ± 0.4,–,1.2,1.5,0.8
–,0.11,–,–,–,0.08,0.34,–,"Cc1nc(C)c(-c2ccnc(Nc3cccnc3)n2)s1 [Compound 1, [4-(2,4-Dimethyl-thiazol-5-yl)-pyrimidin-2-yl]-pyridin-3-yl-amine]",3.6 ± 0.3,< 10,3.2,3.7,3.7
2.9,–,1.5,–,0.28,0.08,0.08,–,"CNc1nc(C)c(-c2ccnc(Nc3ccc(N4CCN(C)CC4)nc3)n2)s1 [Compound 15, [4-(4-Methyl-2-methylamino-thiazol-5-yl)-pyrimidin-2-yl]-[6-(4-methyl-piperazin-1-yl)-pyridin-3-yl]-amine]",–,–,–,–,–
0.013,0.11,0.37,3.4,0.23,0.027,1.2,–,"CCn1c(C)c(-c2ccnc(Nc3ccc(OC)nc3)n2)sc1=O [Compound 11, 3-Ethyl-5-[2-(6-methoxy-pyridin-3-ylamino)-pyrimidin-4-yl]-4-methyl-3H-thiazol-2-one]",–,–,–,–,–
0.16,0.05,0.86,2,1.5,0.005,0.07,–,"Cc1nc(N)sc1-c1ccnc(Nc2ccc(Cl)nc2)n1 [Compound 7, [4-(2-Amino-4-methyl-thiazol-5-yl)-pyrimidin-2-yl]-(6-chloro-pyridin-3-yl)-amine]",3.2 ± 0.1,< 10,3.3,3.1,3.4
